In a melting point compilation (Tetko et al.; mined from patent text by program, amines drawn as free bases though some values may be those of a salt):

Row | SMILES | melting point [°C]
1 | COc1ccc(C(=O)Nc2ccccc2)cc1NC(=S)Nc1ccc(OC)c(OC)c1 | 170 to 171
2 | OCC1=Cc2cc(Cl)ccc2Sc2sccc21 | 117 to 120
3 | O=C(O)c1cccc(Nc2nc(Oc3ccccc3)nc(Oc3ccc(Cl)cc3)n2)c1 | 244 to 247
4 | CC1(O)CCC(=O)N(O)C1 (stereo not drawn) | 98 to 100
5 | O=C(Cc1c(-c2ccccc2)c2cc3c(cc2oc1=O)C(=O)OC3)Nc1ccc(F)cc1C(F)(F)F | 253 to 254
6 | COc1ccc(C(=O)Nc2ccc3ccc(Oc4ccccc4OC)nc3n2)cc1 | 168 to 170
7 | CC12CCC(O)C(O)C1=CCC1C2CCC2(C)C(O)C(O)CC12 (stereo not drawn) | 238 to 241
8 | COc1ccc2c(c1)C(N)=NCC2 | 114 to 118
9 | Cc1oc(-c2ccccc2)nc1CCc1noc2cc(CC(Sc3ccccc3)C(=O)O)ccc12 (stereo not drawn) | 145 to 147
10 | CC(N(CCCl)C(N)=O)P(=O)(O)O (stereo not drawn) | 180
11 | COC(=N)COc1ccc(OC)cc1 | 95 to 96
12 | CCOC(=N)c1cccc(Cc2ccccc2)c1 | 121 to 122
13 | CSc1nc(NC2CCCCC2)c2ccnc-2[nH]1 | 189 to 190
14 | COC(=O)c1c(Cl)cc(Cl)cc1NC(=O)CSc1ccc(NC(=S)NCc2ccccc2)cc1 | 152 to 155
15 | CC(C)N(C[C@@H]1CCC[C@H](CN(C(=O)Nc2ccc(N(C)C)cc2)C(C)C)C1)C(=O)Nc1ccc(N(C)C)cc1 | 139 to 141
16 | CCCCCCCCOc1ccc(C(=O)Oc2ccc(-c3ccc(OC(=O)[C@H]4CCCO4)cc3)cc2)cc1 | 73
17 | Clc1ccc(-c2cc3nc(N4CCOCC4)c4ccccc4c3nn2)cc1 | 244 to 246
18 | CC(C)(O)C(=O)c1ccc(C(O)c2ccc(C(=O)C3(O)CCCCC3)cc2)cc1 (stereo not drawn) | 115 to 118
19 | Cn1c(SC(C(N)=O)c2ccccc2)nc2ccccc21 (stereo not drawn) | 185 to 187
20 | O=C(O)c1ccccc1-c1nnc(-c2cccc(C(F)(F)F)c2)o1 | 141 to 159

Row | SMILES | melting point [°C]
21 | CCN(C)c1nc(-c2ccc(OC)c(OC)c2)nc2sc(C#N)c(C)c12 | 133 to 135
22 | Nc1cc(-n2cccn2)nc(-c2ccc(Cl)o2)n1 | 210 to 211
23 | CC(C)(C)c1cc(N)n(-c2ccccc2)n1 | 65 to 67
24 | Cc1ccc(NC(=O)c2ccc(/C=C/C(=O)NOC3CCCCO3)cc2)cc1Nc1nc(-c2cccnc2)cs1 (stereo not drawn) | 168
25 | O=c1cccccc1N1CCN(c2cccc(C(F)(F)F)c2)CC1 | 112 to 114
26 | CC(C)(C)OC(=O)NC1(CCOS(C)(=O)=O)CC1 | 88 to 89
27 | CCCCCNC(=O)[C@H](Cc1ccc(OCC(=O)O)c(-c2cc(O)no2)c1)NC(=O)[C@H](Cc1ccccc1)NC(=O)OC(C)(C)C | 122 to 123
28 | CC(=O)c1cn(C)cc(-c2cccc(C(F)(F)F)c2)c1=O | 130 to 131
29 | NCC(COC(C(F)(F)F)(C(F)(F)F)C(F)(F)F)(COC(C(F)(F)F)(C(F)(F)F)C(F)(F)F)C(=O)O | 182 to 184
30 | OCC1NCCc2occc21 (stereo not drawn) | 66 to 69
31 | COc1ccc(Br)cc1C1C2CC3CC(C2)CC1C3 (stereo not drawn) | 140 to 141
32 | CCc1ccc(CCOc2ccc(CC(N)C(=O)O)cc2)nc1 (stereo not drawn) | 214 to 221
33 | O=[N+]([O-])c1cccc(-c2csc(NS(=O)(=O)c3ccc(Cl)c(Cl)c3)n2)c1 | 189 to 191
34 | CCC(=O)c1ccc(O)c(C(C)C)c1 | 105
35 | N#Cc1cnc2sc(Cl)cc2c1Nc1ccc2[nH]ccc2c1 | 228
36 | O=C(Cc1ccccc1)Nc1ccccc1SCc1ccc(Cl)cc1 | 100 to 101
37 | Nc1nc(N)c(C(=O)NC(Cc2ccccc2)C(=O)NCCNCC(O)COc2cccc3ccccc23)nc1Cl (stereo not drawn) | 142 to 146
38 | CN(C(=O)c1ccco1)c1cccc(-c2nc(=O)c3ccccc3s2)n1 | 186 to 187
39 | COc1ccc(-c2c(/C=C/C(=O)O)ccc3cc(OC)ccc23)cc1 | 248 to 249

The next lines start with the values.

Row | melting point [°C] | SMILES
40 | 153 to 156 | N#CC1C(=O)NC(=O)C(C(=O)OCc2ccccc2)C12CCCCC2 (stereo not drawn)
41 | > 300 | CCn1c(=O)c(C#N)c(N)c2ccc(C)nc21
42 | 178 to 179 | COc1ccc(C(=O)N2c3ccccc3C(n3c4ccccc4c4ccccc43)CC2CCCCCN2CCN(c3ccc(F)cc3)CC2)cc1OC (stereo not drawn)
43 | 210 to 212 | O=C1N(C(c2ccccc2)c2ccccc2)c2ccccc2C1(O)c1cc2c(cc1O)OCCO2 (stereo not drawn)
44 | 173 | CC1=N/C(=C\c2cccnc2)C(=O)O1
45 | 162 to 164 | CCOCc1nc2c(N)nc(C)cc2n1CCCCNS(C)(=O)=O
46 | 133 to 136 | CCCCCCCCCCCCOC(=O)NS(=O)(=O)Nc1c(OC)cc(OC)cc1OC
47 | 75 to 78 | CC(C)(C)OC(=O)NC1CC(=O)C1
48 | 47 to 48 | COC(C#N)c1ccc2ccccc2c1 (stereo not drawn)
49 | 143 to 150 | CC(C)Nc1nc(NN)nc(Cl)c1-c1c(F)cc(F)cc1F
50 | 88 | CCCCC(=O)NC(C#N)C(=O)OCC (stereo not drawn)
51 | 201 to 202 | OCCc1c(-c2ccccc2)[nH]c2nccnc12
52 | 260 to 262 | Cc1cc(Nc2cncc(Nc3cccc(C#N)c3)n2)n[nH]1
53 | 144 to 145 | OCCNC(=S)NC(=Nc1ccccc1)c1ccccc1
54 | > 300 | O=C(c1ccccc1C(c1ccc(O)cc1)c1ccc(O)cc1)N1CCN(c2ccccc2Cl)CC1
55 | 165 to 167 | CCCCc1oc2ccccc2c1C(=O)c1ccc2c(Br)c(OC(Cc3ccccc3)C(=O)O)ccc2c1 (stereo not drawn)
56 | 180 to 181 | Nc1ccc(NC(=O)CCC(=O)O)cc1

Row | melting point [°C] | SMILES
57 | 298 to 301 | CC(C)(C)c1ccc(C(=O)Nc2cn3nc(-n4cnc(CO)c4)ccc3n2)cc1
58 | 73 to 74 | CC(C(=O)O)N(O)C(C)(C)C (stereo not drawn)
59 | 165 to 166 | CNC(=NS(C)(=O)=O)NCCCCc1nc(NC(N)=NCC(F)(F)F)sc1C
60 | 175 to 176 | Nc1[nH]ncc1-c1nc(-c2ccco2)n[nH]1
61 | 133 to 134 | CC(=O)OCc1cn(C(c2ccccc2)(c2ccccc2)c2ccccc2)cn1
62 | 220 to 222 | CC(O)c1c(-c2ccc(F)cc2)cc2c3c1ccn3C(=O)CNC2 (stereo not drawn)
63 | 101 to 102 | FC(F)(F)c1nc(-c2ccc(Cl)cc2)c(-c2ccc(Cl)cc2)s1
64 | 116 to 117 | CCOC(=O)c1ccc(C=Cc2cc3ccccc3s2)s1
65 | 98 to 101 | CCOC(=O)CNc1cc(C(F)(F)F)ccc1C#N
66 | 113 to 115 | O=C(O)c1ccccc1OC1CCOC1=O (stereo not drawn)
67 | 140 to 142 | CC(C)c1c(C(=O)Nc2ccccc2)c(-c2ccccc2)c(-c2ccc(F)cc2)n1CC[C@@H]1C[C@H](CC(=O)OC(C)(C)C)OC(C)(C)O1
68 | 297 | O=C(O)C1C(=O)c2cc(F)ccc2N=C1c1ccccc1 (stereo not drawn)
69 | 168 to 170 | O=[N+]([O-])c1oc2c(NS(=O)(=O)C(F)(F)F)cccc2c1-c1ccccc1
70 | 168 to 169 | COc1ccc(SSc2ccc(OC)cc2C(=O)NC(CC(C)C)C(=O)O)c(C(=O)NC(CC(C)C)C(=O)O)c1 (stereo not drawn)
71 | 157 to 159 | CCCOc1nc2cccc(C(=O)OCC)c2n1Cc1ccc(-c2ccccc2-c2nnn[nH]2)cc1
72 | 67 to 68 | COc1ccc(CCCC(O)CCC(=O)O)cc1 (stereo not drawn)
73 | 113 to 115 | CC(=O)c1cc2c(Cl)cccc2s1
